Data as given in patent US10463644B2, “Uses of sesquiterpene lactone compounds and their derivatives in drugs preparation” (ACCENDATECH, priority 2013, dated 2019).
Like-named read-outs stand apart in the source and are kept apart here.

Experiments:
[1] = test system: IL-1β secreted by synoviocyte; assay: Content of IL-1β in culture supernatant of synoviocyte of RA model rats given test compound; format: in vivo; conditions: rat RA model, dose 30 mg/kg.2d; normal control 0.16 ± 0.034, NaCl 0.49 ± 0.136
Method in brief: (§1)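 Rat RA model; dosing 30 mg/kg.2d; normal and NaCl control groups. Synoviocyte culture supernatant collected; TNF-α and PGE2 measured by one established method, IL-1β by a separate method.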

[2] = test system: cancer stem cells; assay: Survival rate of cancer stem cells after test compound is added (flow cytometry, Annexin V-FITC/PI, clinical specimen); format: cell-based, patient; conditions: Homo sapiens, 18 h
Method in brief: (§2)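 Survival was determined in clinical specimens after an 18 h compound treatment, using Annexin V-FITC/PI apoptosis staining and flow cytometry.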

[3] = test system: cancer cells; assay: Survival rate of cancer cells after test compound is added (flow cytometry, Annexin V-FITC/PI, clinical specimen); format: cell-based, patient; conditions: Homo sapiens, 18 h, read-out: Survival rate (%) All cells (Stem cells and ordinary cells)
Method in brief: as §2

[4] = test system: TNF-α secreted by synoviocyte; assay: Content of TNF-α in culture supernatant of synoviocyte of RA model rats given test compound; format: in vivo; conditions: rat RA model, dose 30 mg/kg.2d; normal control 0.38 ± 0.027, NaCl 0.74 ± 0.098
Method in brief: as §1

[5] = test system: PGE2 secreted by synoviocyte; assay: Content of PGE2 in culture supernatant of synoviocyte of RA model rats given test compound; format: in vivo; conditions: rat RA model, dose 30 mg/kg.2d; normal control 8.34 ± 1.29, NaCl 32.44 ± 10.32
Method in brief: as §1

[6] = Head and neck squamous cell carcinomas

SMILES: C=C1C(=O)O[C@H]2[C@H]1CC[C@]1(C)O[C@@]13CC[C@@](C)(O)[C@H]23 [Compound 24]
- Content of IL-1β in culture supernatant of synoviocyte (x ± s) [1]: 0.37 ± 0.051 ng/mL
- viability at 10 µM ([2]; AML): 48%
- viability at 20 µM ([2]; AML): 39%
- viability at 10 µM ([2]; Brain glioma): 52%
- viability at 20 µM ([2]; Brain glioma): 42%
- viability at 10 µM ([2]; Brain tumor): 66%
- viability at 20 µM ([2]; Brain tumor): 54%
- viability at 10 µM ([2]; Breast cancer): 54%
- viability at 20 µM ([2]; Breast cancer): 47%
- viability at 10 µM ([2]; CLL): 48%
- viability at 20 µM ([2]; CLL): 39%
- viability at 10 µM ([2]; CML): 51%
- viability at 20 µM ([2]; CML): 46%
- viability at 10 µM ([2]; Children hepatoblastoma): 67%
- viability at 20 µM ([2]; Children hepatoblastoma): 57%
- viability at 10 µM ([2]; Colon adenocarcinoma): 58%
- viability at 20 µM ([2]; Colon adenocarcinoma): 49%
- viability at 10 µM ([2]; Colorectal cancer): 66%
- viability at 20 µM ([2]; Colorectal cancer): 55%
- viability at 10 µM ([2]; Gastric cancer): 51%
- viability at 20 µM ([2]; Gastric cancer): 39%
- viability at 10 µM ([2]; Gastrointestinal tumor): 56%
- viability at 20 µM ([2]; Gastrointestinal tumor): 51%
- viability at 10 µM ([2]; Glioma): 69%
- viability at 20 µM ([2]; Glioma): 60%
- viability at 10 µM [2, 6]: 64%
- viability at 20 µM [2, 6]: 57%
- viability at 10 µM ([2]; Laryngeal cancer): 65%
- viability at 20 µM ([2]; Laryngeal cancer): 55%
- viability at 10 µM ([2]; Liver cancer): 74%
- viability at 20 µM ([2]; Liver cancer): 61%
- viability at 10 µM ([2]; Lung adenocarcinoma): 68%
- viability at 20 µM ([2]; Lung adenocarcinoma): 55%
- viability at 10 µM ([2]; Lung cancer): 61%
- viability at 20 µM ([2]; Lung cancer): 54%
- viability at 10 µM ([2]; Malignant melanoma): 81%
- viability at 20 µM ([2]; Malignant melanoma): 76%
- viability at 10 µM ([2]; Nasopharynx cancer): 57%
- viability at 20 µM ([2]; Nasopharynx cancer): 48%
- viability at 10 µM ([2]; Ovarian cancer): 57%
- viability at 20 µM ([2]; Ovarian cancer): 45%
- viability at 10 µM ([2]; Pancreatic cancer): 55%
- viability at 20 µM ([2]; Pancreatic cancer): 49%
- viability at 10 µM ([2]; Prostate cancer): 61%
- viability at 20 µM ([2]; Prostate cancer): 51%
- viability at 10 µM ([2]; Retinoblastoma): 62%
- viability at 20 µM ([2]; Retinoblastoma): 54%
- viability at 10 µM ([2]; Skin cancer): 46%
- viability at 20 µM ([2]; Skin cancer): 39%
- viability at 10 µM ([3]; AML): 59%
- viability at 20 µM ([3]; AML): 48%
- viability at 10 µM ([3]; Brain glioma): 65%
- viability at 20 µM ([3]; Brain glioma): 53%
- viability at 10 µM ([3]; Brain tumor): 74%
- viability at 20 µM ([3]; Brain tumor): 69%
- viability at 10 µM ([3]; Breast cancer): 77%
- viability at 20 µM ([3]; Breast cancer): 58%
- viability at 10 µM ([3]; CLL): 67%
- viability at 20 µM ([3]; CLL): 48%
- viability at 10 µM ([3]; CML): 69%
- viability at 20 µM ([3]; CML): 51%
- viability at 10 µM ([3]; Children hepatoblastoma): 75%
- viability at 20 µM ([3]; Children hepatoblastoma): 68%
- viability at 10 µM ([3]; Colon adenocarcinoma): 66%
- viability at 20 µM ([3]; Colon adenocarcinoma): 57%
- viability at 10 µM ([3]; Colorectal cancer): 78%
- viability at 20 µM ([3]; Colorectal cancer): 67%
- viability at 10 µM ([3]; Gastric cancer): 66%
- viability at 20 µM ([3]; Gastric cancer): 48%
- viability at 10 µM ([3]; Gastrointestinal tumor): 72%
- viability at 20 µM ([3]; Gastrointestinal tumor): 62%
- viability at 10 µM ([3]; Glioma): 78%
- viability at 20 µM ([3]; Glioma): 74%
- viability at 10 µM [3, 6]: 76%
- viability at 20 µM [3, 6]: 68%
- viability at 10 µM ([3]; Laryngeal cancer): 75%
- viability at 20 µM ([3]; Laryngeal cancer): 66%
- viability at 10 µM ([3]; Liver cancer): 82%
- viability at 20 µM ([3]; Liver cancer): 72%
- viability at 10 µM ([3]; Lung adenocarcinoma): 78%
- viability at 20 µM ([3]; Lung adenocarcinoma): 64%
- viability at 10 µM ([3]; Lung cancer): 72%
- viability at 20 µM ([3]; Lung cancer): 66%
- viability at 10 µM ([3]; Malignant melanoma): 88%
- viability at 20 µM ([3]; Malignant melanoma): 86%
- viability at 10 µM ([3]; Nasopharynx cancer): 64%
- viability at 20 µM ([3]; Nasopharynx cancer): 59%
- viability at 10 µM ([3]; Ovarian cancer): 68%
- viability at 20 µM ([3]; Ovarian cancer): 61%
- viability at 10 µM ([3]; Pancreatic cancer): 68%
- viability at 20 µM ([3]; Pancreatic cancer): 62%
- viability at 10 µM ([3]; Prostate cancer): 75%
- viability at 20 µM ([3]; Prostate cancer): 62%
- viability at 10 µM ([3]; Retinoblastoma): 82%
- viability at 20 µM ([3]; Retinoblastoma): 69%
- viability at 10 µM ([3]; Skin cancer): 62%
- viability at 20 µM ([3]; Skin cancer): 47%
- Content of TNF-α in culture supernatant of synoviocyte (x ± s) [4]: 0.54 ± 0.057 ng/mL
- Content of PGE2 in culture supernatant of synoviocyte (x ± s) [5]: 23.63 ± 1.35 ng/mL
